Consider 3 compounds from publication PMC8041304, “Halogen Atoms in the Protein–Ligand System. Structural and Thermodynamic Studies of the Binding of Bromobenzotriazoles by the Catalytic Subunit of Human Protein Kinase CK2” (The Journal of Physical Chemistry. B, 2021).

“And” between values parts separate entries of the source, which are not always exact repeats. Equal entries are not always repeated. Where two headings read alike, the source gives them in different places.

Series [1] addresses T1, hCK2α (Homo sapiens, UniProt P68400).
T1 construct: made in house
Further details: method as in PMID 32162783. The following applies: cited from earlier work.

Series [2] addresses T1, hCK2α. Further details: method as in earlier work. The following applies: ref 6 (of the supplement); read-out: KATP, dissociation constant of ATP; cited from earlier work.
The target in series [3] is T1, hCK2α. The experiment in a line: Fluorescence-monitored thermal denaturation (nanoDSF) of hCK2α complexes. It counts as binding. The following applies: protein 2.5 μM, ligand 25 μM. Here is the method: The samples were loaded into nanoDSF grade Standard Capillaries (NanoTemper Technologies) and analyzed using the Prometheus NT.48 nanoDSF device (NanoTemper Technologies). Thermal unfolding of the protein was monitored using a linear thermal ramp (1 °C·min^–1; 20–80 °C) with an excitation power of 30%.
This prompted us to measure the thermal stabilities of hCK2α and its complexes at pH 7.5 by fluorescence-monitored thermal denaturation (nanoDSF) (Table 2).

The target in series [4] is T1, hCK2α. The experiment in a line: Isothermal titration calorimetry (MicroCal iTC200), reverse titration. The following applies: for Kd: iTC200, independent experiments separately evaluated. Type of series: binding. Here is the method: ITC measurements were carried out using the MicroCal iTC200 (Malvern) calorimeter. The hCK2α samples were diluted to the required protein concentration with the 25 mM Tris-HCl pH 8 buffer containing 0.5 M NaCl. Stock ligand solutions were diluted with the appropriate DMSO volume prior to mixing with the buffer to obtain the required ligand concentration and a final DMSO content of 1%. Due to the limited solubility of halogenated benzotriazoles, all titration experiments were performed in the reverse mode, in which buffered ligand solution was placed in the calorimetric cell and titrated with the protein solution.[35]
(§1) In all experiments the maximum ligand concentration of 10 μM was used to minimize a possible contribution of the secondary binding site.

Series [5] has as its target T1, hCK2α. Description: Isothermal titration calorimetry (NanoITC). It counts as binding. The following applies: pH 8. The protocol:
as §1

Series [6] is described as follows: Density measurements: partial molar volume and thermal expansivity of the solute. The following applies: 50 mM phosphate buffer pH 11. Type of series: physicochemical. Here is the method: Partial molar volumes were estimated with a density meter Anton Paar DMA 5000 M at 20, 25, and 30 °C from the concentration–density dependency for compounds dissolved in 50 mM phosphate buffer (pH 11). The experimental procedure and the data analysis method were described previously.[36],[57],[58] The partial molar volume at 25 °C (V2^0) and thermal volumetric expansivity of the solute (α2^0 = ∂V2^0/∂T) were estimated globally from two independent dilution series. The density of pure solvent (d0) was extrapolated individually for each experimental condition (i.e., temperature and buffer preparation). The change of d0 with temperature was further used to determine thermal volumetric expansivity coefficient of the bulk buffer according to the formula α0 = −(∂d0/∂T)/d0.
According to the Lum, Chandler, and Weeks (LCW) theory, the hydrophobic interactions scale for solutes of subnanometer size with the volume of the molecule rather than its surface.[61] We have recently proposed partial molar volume as the extensive parameter to describe both the solute volume and the solute-induced reorganization of the solvation shell.[36],[57],[58],[62],[63] By analyzing density data at three temperatures (20, 25, and 30 °C), we could estimate the partial molar volume of the ligand (V2^0) and the bulk solvent density (d0(T)). We could further separate the thermal expansivity coefficient of the bulk solvent (α0) and the apparent expansivity of the solute (α2^0). The latter parameter is comprised mainly of the thermal expansion effect of the hydration shell. The values of α0 fell within the narrow range of (26.9 ± 1.3) × 10^–5 K^–1, which is close to the literature data for water (25.72 × 10^–5 K^–1 at 25 °C).[64] […] The solute thermal expansivity (α2^0), together with the change of isobaric heat capacity upon ligand binding (ΔCp,bind), has already been associated with the properties of the solvation layer.[65],[66] Importantly, α2^0 is proportional to the partial molar volume V2^0 (Figure 3D). So, V2^0 may be another descriptor of hydrophobic interactions. Consequently, the volume-normalized solute expansivity coefficient (α = α2^0/V2^0) is almost the same for all studied bromobenzotriazoles (232 ± 22 × 10^–5 K^–1). Importantly, this value substantially exceeds the thermal expansivity coefficient of the bulk buffer (α0 = 26.9 ± 1.3 × 10^–5 K^–1), clearly confirming that water organization changes with temperature more near the solute surface than in the bulk.

Series [7] deals with T1, hCK2α. Further details: method as in PMID 25891901. The following applies: cited from earlier work.
Series [8] concerns the target T1, hCK2α. More on the design: method as in PMID 23155426. The following applies: pH 7.5; cited from earlier work.
On the set-up of series [9]: method as in doi:10.1016/j.molliq.2019.111527. The following applies: calculated water–octanol partition coefficient; cited from earlier work.
Details of series [10]: method as in PMID 32162783. The following applies: HPLC-derived hydrophobicity; cited from earlier work.
On the set-up of series [11]: method as in PMID 22632480. The following applies: pH 8.0; cited from earlier work.

T1 sequence (P68400 whole entry): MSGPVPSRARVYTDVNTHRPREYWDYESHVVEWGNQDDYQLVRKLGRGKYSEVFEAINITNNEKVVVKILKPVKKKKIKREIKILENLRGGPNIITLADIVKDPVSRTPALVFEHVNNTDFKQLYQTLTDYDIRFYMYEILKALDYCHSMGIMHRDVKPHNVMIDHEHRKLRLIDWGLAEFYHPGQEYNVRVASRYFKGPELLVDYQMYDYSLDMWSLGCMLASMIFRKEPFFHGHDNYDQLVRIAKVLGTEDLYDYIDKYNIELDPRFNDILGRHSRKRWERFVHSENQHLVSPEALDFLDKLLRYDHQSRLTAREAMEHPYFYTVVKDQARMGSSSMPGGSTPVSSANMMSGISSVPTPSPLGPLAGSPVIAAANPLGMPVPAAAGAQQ

As for `Clc1c(Br)c(Br)c(Cl)c2[nH]nnc12` [5,6-Br2-4,7-Cl2Bt], the “affinity to hCK2α among the four isomeric dibromo–dichlorobenzotriazoles” value on hCK2α [1] is reported as “highest affinity”.
`Nc1ncnc2c1ncn2[C@@H]1O[C@H](COP(=O)(O)OP(=O)(O)OP(=O)(O)O)[C@@H](O)[C@H]1O` [ATP]: the Kd on hCK2α [2] is 4300 ± 1800 nM.
Take `Brc1cc2nn[nH]c2cc1Br` [5,6-Br2Bt, 5,6-bromobenzotriazole]: the “Tm (°C) at pH 7.5” value on hCK2α [3] (hCK2α in complex with ligand) is 52.96 ± 0.05 °C. Also, the “ΔTm (°C) at pH 7.5” value at hCK2α [3] (unfolding temperature with ligand minus without) is 7.8 ± 0.1 °C. The “ΔGbind, free energy of binding” value on hCK2α [4] (25 °C, pH 8, ITC) is given as “–40.9 ± 0.3 kJ·mol^–1”. The “ΔSrt, entropic term for loss of ligand rotational and translational degrees of freedom” value at hCK2α [4] (calculated from ligand molecular mass) was -291 J∙mol-1∙K-1. Further, the “Ts, temperature at which the entropy change upon ligand binding is zero” value at hCK2α [4] (estimated from the linear fit of ΔS(T)) was 268 ± 42 K. Further, the Kd on hCK2α [4] (20 °C, pH 8) was 32 nM and 33 nM; at hCK2α [4] (25 °C, pH 8) it was 50 nM and 27 nM; on hCK2α [4] (30 °C, pH 8) it was 84 nM and 69 nM; on hCK2α [4] (35 °C, pH 8), 108 nM and 115 nM; on hCK2α [5] (15 °C), 59 ± 49 nM; at hCK2α [5] (20 °C), 60 ± 54 nM. In addition, the figures for the Kd on hCK2α [5] (25 °C), at hCK2α [5] (30 °C) and on hCK2α [5] (35 °C) were 46 ± 26 nM, 150 ± 120 nM and 93 ± 49 nM, respectively. Moreover, the “ΔSHE(Ts), hydrophobic-effect contribution to the entropy change upon binding” value on hCK2α [4] (≈ 1.35∙ΔCp,bind∙ln(Ts/386)) was 291 ± 34 J∙mol-1∙K-1. Further, the ΔG at hCK2α [5] (15 °C) is -9.54 ± 0.478 kcal/mol; on hCK2α [5] (20 °C) it was -9.7 ± 0.526 kcal/mol; on hCK2α [5] (25 °C), -10 ± 0.335 kcal/mol; on hCK2α [5] (30 °C), -9.44 ± 0.454 kcal/mol; at hCK2α [5] (35 °C), -9.92 ± 0.311 kcal/mol. Moreover, the ΔH on hCK2α [5] (15 °C) is -13.5 ± 1.12 kcal/mol; on hCK2α [5] (20 °C), -14.8 ± 1.34 kcal/mol; on hCK2α [5] (25 °C), -16.9 ± 0.765 kcal/mol; on hCK2α [5] (30 °C), -18.3 ± 0.693 kcal/mol; at hCK2α [5] (35 °C), -20.8 ± 1.86 kcal/mol. Moreover, the ΔS on hCK2α [5] (15 °C) is -58 ± 18 J·mol-1·K-1; at hCK2α [5] (20 °C) it was -73 ± 21 J·mol-1·K-1; on hCK2α [5] (25 °C) it was -97 ± 12 J·mol-1·K-1; on hCK2α [5] (30 °C), -122 ± 11 J·mol-1·K-1; on hCK2α [5] (35 °C) it was -148 ± 26 J·mol-1·K-1. The “α2^0, thermal volumetric expansivity of the solute” value in [6] (20, 25, 30 °C) is listed as 0.33 ± 0.14 cm^3·mol^–1·K^–1. The “V2^0, partial molar volume” value in [6] (25 °C) worked out at 150.0 ± 0.6 cm^3·mol^–1. Moreover, at hCK2α [7], the “ΔTm (°C) at pH 8” value is 7.4 ± 0.1 °C. The IC50 on hCK2α [8] is 0.56 ± 0.02 µM. Besides, the “log P” value in series [9] is on record as 2.36. In addition, the “log(τ)” value in series [10] is listed as “–0.30”. Further, the “fraction of the ligand that is neutral” value in series [11] was 0.08.
